Results: patent US7045526B2, “Substituted 4-amino-2-aryl-tetrahydroquinazolines, their preparation, their use and pharmaceutical preparations comprising them” (Sanofi-Aventis Deutschland GmbH, priority 1999, dated 2006)

Target: T1, soluble guanylate cyclase (sGC) (Bos taurus, UniProt P16068+P19687)
T1 construct: The sGC employed had been isolated from bovine lung; from tissue; host or cells: bovine lung
T1 sequence (P16068 1-619): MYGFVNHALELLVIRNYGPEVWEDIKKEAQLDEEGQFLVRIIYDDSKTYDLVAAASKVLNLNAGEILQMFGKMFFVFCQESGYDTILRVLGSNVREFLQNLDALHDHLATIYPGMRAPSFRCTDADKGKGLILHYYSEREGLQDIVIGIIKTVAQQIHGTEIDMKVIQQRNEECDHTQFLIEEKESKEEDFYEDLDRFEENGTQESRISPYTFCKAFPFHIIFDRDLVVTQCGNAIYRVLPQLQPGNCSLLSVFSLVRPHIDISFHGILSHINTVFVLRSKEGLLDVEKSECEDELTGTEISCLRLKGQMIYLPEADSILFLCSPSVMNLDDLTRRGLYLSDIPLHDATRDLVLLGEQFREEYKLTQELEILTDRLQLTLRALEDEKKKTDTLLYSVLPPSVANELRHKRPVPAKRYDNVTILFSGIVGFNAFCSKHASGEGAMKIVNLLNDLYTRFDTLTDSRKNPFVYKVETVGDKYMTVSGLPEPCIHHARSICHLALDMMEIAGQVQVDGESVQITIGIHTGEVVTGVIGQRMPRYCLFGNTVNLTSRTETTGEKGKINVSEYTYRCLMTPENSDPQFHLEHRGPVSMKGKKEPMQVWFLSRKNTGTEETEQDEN
T1 sequence (P19687 1-691): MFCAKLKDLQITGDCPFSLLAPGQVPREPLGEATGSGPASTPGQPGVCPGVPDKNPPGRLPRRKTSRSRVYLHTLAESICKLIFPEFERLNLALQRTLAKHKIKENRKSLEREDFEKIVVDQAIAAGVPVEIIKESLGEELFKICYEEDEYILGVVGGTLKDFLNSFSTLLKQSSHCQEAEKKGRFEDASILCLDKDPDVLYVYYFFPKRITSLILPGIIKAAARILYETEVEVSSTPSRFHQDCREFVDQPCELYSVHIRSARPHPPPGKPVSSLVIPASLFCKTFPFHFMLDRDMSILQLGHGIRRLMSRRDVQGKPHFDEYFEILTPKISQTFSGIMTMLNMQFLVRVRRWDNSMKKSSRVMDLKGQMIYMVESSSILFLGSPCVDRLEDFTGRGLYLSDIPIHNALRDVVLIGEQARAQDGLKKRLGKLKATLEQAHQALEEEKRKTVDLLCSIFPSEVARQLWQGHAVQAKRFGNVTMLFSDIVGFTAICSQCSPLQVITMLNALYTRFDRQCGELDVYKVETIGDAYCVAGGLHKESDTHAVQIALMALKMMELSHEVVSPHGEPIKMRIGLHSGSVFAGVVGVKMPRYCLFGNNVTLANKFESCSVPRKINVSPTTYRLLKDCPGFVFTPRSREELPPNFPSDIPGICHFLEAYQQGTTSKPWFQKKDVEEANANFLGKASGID
Assay: Activation of soluble guanylate cyclase (cGMP enzyme immunoassay)
Format: biochemical
Conditions: test substance 50 μM; sGC isolated from bovine lung; 37° C., 15 to 20 minutes; [cGMP]test substance/[cGMP]control (basal enzyme activity)
Protocol: Activation of Soluble Guanylate Cyclase
The activation of soluble guanylate cyclase (sGC), which catalyzes the conversion of guanosine triphosphate (GTP) to cyclic guanosine monophosphate (cGMP) and pyrophosphate, by the compounds according to the invention was quantified with the aid of an enzyme immunoassay (EIA) from Amersham. For this, the test substances were first incubated with sGC in microtiter plates and then the quantity of the resulting cGMP was determined.
The sGC employed had been isolated from bovine lung (see Methods in Enzymology, Volume 195, p. 377). The test solutions (100 μl per well) contained 50 mM triethanolamine (TEA) buffer (pH 7.5), 3 mM MgCl2, 3 mM reduced glutathione (GSH), 0.1 mM GTP, 1 mM 3-isobutyl-1-methylxanthine (IBMX), suitably diluted enzyme solution and the test substance or, in the control experiments, solvent. […] The absorption of the samples was measured at 450 nm (reference wavelength 620 nm) in a microtiter plate reading apparatus. The cGMP concentration was determined by means of a calibration curve, which was obtained under the same experimental conditions. The activation of the sGC by a test substance is given as n-fold stimulation of the basal enzyme activity which was found in the control experiments (with solvent instead of test substance), calculated according to the formula: n-fold stimulation=[cGMP]test substance/[cGMP]control.

CS(=O)(=O)O.O[C@H]1CC[C@H](Nc2nc(-c3ccc(Cl)cc3)nc3c2CCCC3)CC1 [Example 26, 2-(4-Chlorophenyl)-4-(trans-4-hydroxycyclohexylamino)-5,6,7,8-tetrahydroquinazoline methanesulfonic acid salt]
n-fold stimulation (at c = 50 μM): 28 n-fold
